The record followed here is patent US20260347319A1, “YAP/TAZ-TEAD ONCOPROTEINS INHIBITORS” (BridGene Biosciences, Inc., priority 2022, published 2026).

Some results are limits rather than exact numbers.

A word on the IC50: it is the point on the concentration scale where inhibition reaches its midpoint. A high value points to a need for much substance.

The subject of this test is TEAD1. Nature of the test: MCF-7 TEAD1-luciferase reporter assay (MCF7-TEAD-Luc). In kind it is cell-based. The following applies: MCF7 cells, overnight; for IC50: Homo sapiens; for TEAD1-Luc MCF7: Max Inhibition: % of DMSO-treated control. Here is the method:
The ability of compounds to inhibit TEAD-dependent transcription was assessed in the MCF7-TEAD-Luc reporter assay (BPS #60618). Cells were seeded at 10,000 cells in 200 μL per well into white wall, clear bottom 96-well plates (Corning #3610) and incubated at 37° C. for 24 hours, then treated with serial diluted compounds overnight, and luciferase signal was measured using the ONE-Step Luciferase Assay System (BPS #60690) using an EnSight Multimode plate reader (PerkinElmer, model #MLDHH34000000, integration time 100 ms) with Kaleido 3.0. software. For data analysis, dose-dependent curves were plotted as “% inhibition” (% of DMSO-treated control wells), and were fitted by four-parametric model in GraphPad Prism to obtain IC50 values.

For the compound `C=CC(=O)N1CC2(C=C(c3ccc(C(F)(F)F)cc3)CC2)C1` [Example 47, 1-(6-(4-(trifluoromethyl)phenyl)-2-azaspiro[3.4]oct-5-en-2-yl)prop-2-en-1-one], the IC50 is at most 0.01 µM and the “TEAD1-Luc MCF7: Max Inhibition” value was “C (50% > C ≥ 2%)”.

For the compound `C=CC(=O)N1CC2(CC=C(c3ccc(C(F)(F)F)cc3)C2)C1` [Example 48, 1-(6-(4-(trifluoromethyl)phenyl)-2-azaspiro[3.4]oct-6-en-2-yl)prop-2-en-1-one], the IC50 lay within 0.1 to 0.5 µM and the “TEAD1-Luc MCF7: Max Inhibition” value is “B (75% > B ≥ 50%)”.

Turning to `C=CC(=O)N1CC(c2cc3ccc(C(F)(F)F)cc3o2)C1` [Example 49, 1-{3-[6-(trifluoromethyl)-1-benzofuran-2-yl]azetidin-1-yl}prop-2-en-1-one], the IC50 was in the range of 0.1 to 0.5 µM and the “TEAD1-Luc MCF7: Max Inhibition” value was “B (75% > B ≥ 50%)”.

As for `C=CC(=O)N1CC(c2cc3cc(C(F)(F)F)ccn3n2)C1` [Example 50, 1-(3-(5-(trifluoromethyl)pyrazolo[1,5-a]pyridin-2-yl)azetidin-1-yl)prop-2-en-1-one], the IC50 is at most 0.01 µM and the “TEAD1-Luc MCF7: Max Inhibition” value is recorded as “B (75% > B ≥ 50%)”.

In the case of `C=CC(=O)N1CC(c2cc3ccc(C(F)(F)F)cn3n2)C1` [Example 51, 1-(3-(6-(trifluoromethyl)pyrazolo[1,5-a]pyridin-2-yl)azetidin-1-yl)prop-2-en-1-one], the IC50 fell in the range of 0.01 to 0.1 µM and the “TEAD1-Luc MCF7: Max Inhibition” value was “B (75% > B ≥ 50%)”.

`C=CC(=O)N1CC(c2cc3ccc(C(F)(F)F)cc3[nH]2)C1` [Example 52, 1-{3-[6-(trifluoromethyl)-1H-indol-2-yl]azetidin-1-yl}prop-2-en-1-one]: the IC50 fell in the range of 0.01 to 0.1 µM and the “TEAD1-Luc MCF7: Max Inhibition” value was “A (A ≥ 75%)”.

With `C=CC(=O)N1CC(c2cc3ccc(C(F)(F)F)cc3n2C)C1` [Example 53, 1-{3-[1-methyl-6-(trifluoromethyl)indol-2-yl]azetidin-1-yl}prop-2-en-1-one], the IC50 was in the range of 0.1 to 0.5 µM and the “TEAD1-Luc MCF7: Max Inhibition” value was “B (75% > B ≥ 50%)”.

On to `C=CC(=O)N1CCC(/C=C/c2cccc(C(F)(F)F)c2)CC1` [Example 54, (E)-1-(4-(3-(trifluoromethyl)styryl)piperidin-1-yl)prop-2-en-1-one], for which the IC50 lay within 0.1 to 0.5 µM and the “TEAD1-Luc MCF7: Max Inhibition” value was “B (75% > B ≥ 50%)”.

As for `C=CC(=O)N1CCC(/C=C\c2cccc(C(F)(F)F)c2)CC1` [Example 55, (Z)-1-(4-(3-(trifluoromethyl)styryl)piperidin-1-yl)prop-2-en-1-one], the IC50 was above 0.5 µM and the “TEAD1-Luc MCF7: Max Inhibition” value is on record as “C (50% > C ≥ 2%)”.

Turning to `C=CC(=O)N1CC(/C=C/c2ccc(C(F)(F)F)cc2)C(n2cccn2)C1` (centres unmarked) [Example 70], the IC50 fell in the range of 0.01 to 0.1 µM and the “TEAD1-Luc MCF7: Max Inhibition” value is reported as “A (A ≥ 75%)”.

`C=CC(=O)N1CCC(C#Cc2ccc(C(F)(F)F)cc2)(OC)CC1` [Example 71, 1-(4-methoxy-4-((4-(trifluoromethyl)phenyl)ethynyl)piperidin-1-yl)prop-2-en-1-one]: the IC50 fell in the range of 0.01 to 0.1 µM and the “TEAD1-Luc MCF7: Max Inhibition” value was “B (75% > B ≥ 50%)”.

With `C=CC(=O)N1CCC(F)(C#Cc2ccc(C(F)(F)F)cc2)CC1` [Example 72, 1-(4-fluoro-4-((4-(trifluoromethyl)phenyl)ethynyl)piperidin-1-yl)prop-2-en-1-one], the IC50 lay within 0.01 to 0.1 µM and the “TEAD1-Luc MCF7: Max Inhibition” value is recorded as “B (75% > B ≥ 50%)”.

Consider `C=CC(=O)N1CCC(O)(C#Cc2ccc(C(F)(F)F)cc2)CC1` [Example 73, 1-(4-hydroxy-4-((4-(trifluoromethyl)phenyl)ethynyl)piperidin-1-yl)prop-2-en-1-one], for which the IC50 is 0.01 to 0.1 µM and the “TEAD1-Luc MCF7: Max Inhibition” value is listed as “A (A ≥ 75%)”.

As to `C=CC(=O)N1CCC(C)(C#Cc2ccc(C(F)(F)F)cc2)CC1` [Example 74, 1-(4-methyl-4-((4-(trifluoromethyl)phenyl)ethynyl)piperidin-1-yl)prop-2-en-1-one], the IC50 was at most 0.01 µM and the “TEAD1-Luc MCF7: Max Inhibition” value was “B (75% > B ≥ 50%)”.

Regarding `C=CC(=O)N1CCCC(C#Cc2cccc(C(F)(F)F)c2)C1` (centres unmarked) [Example 75, 1-(3-((3-(trifluoromethyl)phenyl)ethynyl)piperidin-1-yl)prop-2-en-1-one], the IC50 was 0.01 to 0.1 µM and the “TEAD1-Luc MCF7: Max Inhibition” value is recorded as “A (A ≥ 75%)”.

Consider `C=CC(=O)N1CCCC(C#Cc2ccc(C(F)(F)F)cc2)C1` (centres unmarked) [Example 76, 1-(3-((4-(trifluoromethyl)phenyl)ethynyl)piperidin-1-yl)prop-2-en-1-one], for which the IC50 was in the range of 0.01 to 0.1 µM and the “TEAD1-Luc MCF7: Max Inhibition” value was “A (A ≥ 75%)”.

For `CC#CC(=O)N1CC(/C=C/c2ccc(C(F)(F)F)cc2)C1` [Example 77, (E)-1-(3-(4-(trifluoromethyl)styryl)azetidin-1-yl)but-2-yn-1-one], the IC50 is 0.01 to 0.1 µM and the “TEAD1-Luc MCF7: Max Inhibition” value is reported as “B (75% > B ≥ 50%)”.

For the compound `C#CC(=O)N1CC(/C=C/c2ccc(C(F)(F)F)cc2)C1` [Example 78, (E)-1-(3-(4-(trifluoromethyl)styryl)azetidin-1-yl)prop-2-yn-1-one], the IC50 lay in the range of 0.1 to 0.5 µM and the “TEAD1-Luc MCF7: Max Inhibition” value was “A (A ≥ 75%)”.

Take `C=CC(=O)N1CCC(C#Cc2cccc(C(F)(F)F)c2)CC1` [Example 79, 1-(4-((3-(trifluoromethyl)phenyl)ethynyl)piperidin-1-yl)prop-2-en-1-one]: the IC50 fell in the range of 0.01 to 0.1 µM and the “TEAD1-Luc MCF7: Max Inhibition” value is on record as “B (75% > B ≥ 50%)”.

Consider `C=CC(=O)N1CCC(C#Cc2ccc(C(F)(F)F)cc2)CC1` [Example 80, 1-(4-((4-(trifluoromethyl)phenyl)ethynyl)piperidin-1-yl)prop-2-en-1-one], for which the IC50 lay within 0.01 to 0.1 µM and the “TEAD1-Luc MCF7: Max Inhibition” value is “A (A ≥ 75%)”.

On to `CC#CC(=O)N1CC[C@H](/C=C/c2ccc(C(F)(F)F)cc2)C1` [Example 81, (R,E)-1-(3-(4-(trifluoromethyl)styryl)pyrrolidin-1-yl)but-2-yn-1-one], for which the IC50 was 0.1 to 0.5 µM and the “TEAD1-Luc MCF7: Max Inhibition” value is “B (75% > B ≥ 50%)”.

In the case of `C#CC(=O)N1CC[C@H](/C=C/c2ccc(C(F)(F)F)cc2)C1` [Example 82, (R, E)-1-(3-(4-(trifluoromethyl)styryl)pyrrolidin-1-yl)prop-2-yn-1-one], the IC50 lay within 0.01 to 0.1 µM and the “TEAD1-Luc MCF7: Max Inhibition” value was “A (A ≥ 75%)”.

Regarding `C=CC(=O)N1CC[C@H](C(C)(C)/C=C/c2ccc(C(F)(F)F)cc2)C1` [Example 86, (R, E)-1-(3-(2-methyl-4-(4-(trifluoromethyl)phenyl)but-3-en-2-yl)pyrrolidin-1-yl)prop-2-en-1-one], the IC50 was 0.01 to 0.1 µM and the “TEAD1-Luc MCF7: Max Inhibition” value is on record as “B (75% > B ≥ 50%)”.

Turning to `C=CC(=O)N1CC[C@H](/C=C\c2ccc(C(F)(F)F)cc2)C1` [Example 87, (R, Z)-1-(3-(4-(trifluoromethyl)styryl)pyrrolidin-1-yl)prop-2-en-1-one], the IC50 was 0.1 to 0.5 µM and the “TEAD1-Luc MCF7: Max Inhibition” value is given as “B (75% > B ≥ 50%)”.

Consider `C=CC(=O)N1CCC(C/C=C/c2ccc(C(F)(F)F)cc2)CC1` [Example 90, (E)-1-(4-(3-(4-(trifluoromethyl)phenyl)allyl)piperidin-1-yl)prop-2-en-1-one], for which the IC50 lay within 0.01 to 0.1 µM and the “TEAD1-Luc MCF7: Max Inhibition” value is on record as “B (75% > B ≥ 50%)”.

Turning to `C=CC(=O)N1CCC(/C=C/C(O)c2ccc(C(F)(F)F)cc2)C1` (centres unmarked) [Example 99, (E)-1-(3-(3-hydroxy-3-(4-(trifluoromethyl)phenyl)prop-1-en-1-yl)pyrrolidin-1-yl)prop-2-en-1-one], the IC50 was in the range of 0.01 to 0.1 µM and the “TEAD1-Luc MCF7: Max Inhibition” value was “B (75% > B ≥ 50%)”.

`C=CC(=O)N1CCC(/C=C\C(O)c2ccc(C(F)(F)F)cc2)C1` (centres unmarked) [Example 100, (Z)-1-(3-(3-hydroxy-3-(4-(trifluoromethyl)phenyl)prop-1-en-1-yl)pyrrolidin-1-yl)prop-2-en-1-one]: the IC50 lay within 0.01 to 0.1 µM and the “TEAD1-Luc MCF7: Max Inhibition” value was “B (75% > B ≥ 50%)”.

`C=CC(=O)N1CCC(/C=C\C(OC)c2ccc(C(F)(F)F)cc2)C1` (centres unmarked) [Example 101, (Z)-1-(3-(3-methoxy-3-(4-(trifluoromethyl)phenyl)prop-1-en-1-yl)pyrrolidin-1-yl)prop-2-en-1-one]: the IC50 was 0.1 to 0.5 µM and the “TEAD1-Luc MCF7: Max Inhibition” value is “B (75% > B ≥ 50%)”.

`C=CC(=O)N1CCC(/C=C/C(OC)c2ccc(C(F)(F)F)cc2)C1` (centres unmarked) [Example 102, (E)-1-(3-(3-methoxy-3-(4-(trifluoromethyl)phenyl)prop-1-en-1-yl)pyrrolidin-1-yl)prop-2-en-1-one]: the IC50 lay within 0.01 to 0.1 µM and the “TEAD1-Luc MCF7: Max Inhibition” value is reported as “C (50% > C ≥ 2%)”.

For `C=CC(=O)N1CCC2(C=C(c3ccc(C(F)(F)F)cc3)OC2)C1` (centres unmarked) [Example 105, 1-(3-(4-(trifluoromethyl)phenyl)-2-oxa-7-azaspiro[4.4]non-3-en-7-yl)prop-2-en-1-one], the IC50 lay within 0.01 to 0.1 µM and the “TEAD1-Luc MCF7: Max Inhibition” value is given as “A (A ≥ 75%)”.

Turning to `C=CC(=O)N1CCC2(CC(/C=C/c3ccc(C(F)(F)F)cc3)C2)C1` (centres unmarked) [Example 106, (E)-1-(2-(4-(trifluoromethyl)styryl)-6-azaspiro[3.4]octan-6-yl)prop-2-en-1-one], the IC50 fell in the range of 0.01 to 0.1 µM and the “TEAD1-Luc MCF7: Max Inhibition” value is reported as “B (75% > B ≥ 50%)”.
